Test results as given in EP4813993A1, “COMPOUND, PREPARATION METHOD THEREFOR, AND USE THEREOF” (Sichuan Kelun Pharmaceutical Research Institute Co., Ltd., priority 2023, dated 2025).

Target: T1, Nav1.8 channels (Homo sapiens, UniProt Q9Y5Y9)
T1 construct: expressed in transfected cells
Experiment: Manual patch-clamp, current of stably overexpressed Nav1.8 channels (resting state voltage program)
Format: cell-based
Conditions: not given
Method: Experimental Example 1: Effects of test substances on current of stably overexpressed Nav1.8 channels monitored via manual patch-clamp technique
Test compounds were dissolved in dimethyl sulfoxide (DMSO).
The extracellular fluid was as follows: 140 mM NaCl, 3.5 mM KCl, 1 mM MgCl2•6H2O, 2 mM CaCl2•2H2O, 10 mM D-Glucose, 10 mM HEPES, 1.25 mM NaH2PO4•2H2O; the pH was adjusted to 7.4 with NaOH. The intracellular fluid was as follows: 50 mM CsCl, 10 mM NaCl, 10 mM HEPES, 60 mM CsF, 20 mM EGTA; the pH was adjusted to 7.2 with CsOH.
2. Experimental materials and instruments
• 1) patch-clamp amplifier: EPC 10 (HEKA) • 2) micromanipulator: MP225 (Sutter Instrument) • 3) inverted microscope: MF53 (Mshot) • 4) micropipette puller: P97 (Sutter Instrument) • 5) capillary glass tube: BF150-86-10 (Sutter Instrument)
3. Experimental procedures
• 1) After the compounds were prepared into solutions with specified concentrations, the solutions were sequentially added to the pipeline of the drug delivery system and labeled. • 2) The cell climbing coverslip was placed in the recording chamber, the appropriate cells were selected under the inverted microscope, and the position of the drug delivery tip was adjusted. • 3) A capillary glass tube was pulled into a suitable recording electrode using the micropipette puller, and then the electrode filled with the intracellular fluid was mounted in the microelectrode holder. The micromanipulator was adjusted under the inverted microscope to allow the recording electrode to contact the cell, and negative pressure was applied to the electrode to form a high-resistance seal. At this time, fast capacitance compensation was performed, and then the application of negative pressure was continued to break the cell membrane, forming a whole-cell recording mode. Finally, slow capacitance compensation was performed, and related parameters were recorded. • 4) After the cell current stabilized, administration was started. Each concentration of the drug was applied for five minutes or until the current stabilized before proceeding to monitor the next concentration. The drug solutions were administered via gravity-fed delivery, flowing through the recording chamber to act on the cells in an ascending order of concentration (from low to high). A peristaltic pump was employed for solution exchange in the recording process.
4 Test voltage program (resting state) and results
After the formation of the whole-cell seal, the cell voltage was clamped at -120 mV, followed by depolarization to 0 mV using a square-wave pulse with a duration of 50 ms to elicit Nav1.8 currents. This procedure was repeated every 20 s to monitor the maximum current induced by the square wave. After the current stabilized, the test compounds were administered. Once the response stabilized, the intensity of the current block was calculated.

T1 sequence (Q9Y5Y9 whole entry): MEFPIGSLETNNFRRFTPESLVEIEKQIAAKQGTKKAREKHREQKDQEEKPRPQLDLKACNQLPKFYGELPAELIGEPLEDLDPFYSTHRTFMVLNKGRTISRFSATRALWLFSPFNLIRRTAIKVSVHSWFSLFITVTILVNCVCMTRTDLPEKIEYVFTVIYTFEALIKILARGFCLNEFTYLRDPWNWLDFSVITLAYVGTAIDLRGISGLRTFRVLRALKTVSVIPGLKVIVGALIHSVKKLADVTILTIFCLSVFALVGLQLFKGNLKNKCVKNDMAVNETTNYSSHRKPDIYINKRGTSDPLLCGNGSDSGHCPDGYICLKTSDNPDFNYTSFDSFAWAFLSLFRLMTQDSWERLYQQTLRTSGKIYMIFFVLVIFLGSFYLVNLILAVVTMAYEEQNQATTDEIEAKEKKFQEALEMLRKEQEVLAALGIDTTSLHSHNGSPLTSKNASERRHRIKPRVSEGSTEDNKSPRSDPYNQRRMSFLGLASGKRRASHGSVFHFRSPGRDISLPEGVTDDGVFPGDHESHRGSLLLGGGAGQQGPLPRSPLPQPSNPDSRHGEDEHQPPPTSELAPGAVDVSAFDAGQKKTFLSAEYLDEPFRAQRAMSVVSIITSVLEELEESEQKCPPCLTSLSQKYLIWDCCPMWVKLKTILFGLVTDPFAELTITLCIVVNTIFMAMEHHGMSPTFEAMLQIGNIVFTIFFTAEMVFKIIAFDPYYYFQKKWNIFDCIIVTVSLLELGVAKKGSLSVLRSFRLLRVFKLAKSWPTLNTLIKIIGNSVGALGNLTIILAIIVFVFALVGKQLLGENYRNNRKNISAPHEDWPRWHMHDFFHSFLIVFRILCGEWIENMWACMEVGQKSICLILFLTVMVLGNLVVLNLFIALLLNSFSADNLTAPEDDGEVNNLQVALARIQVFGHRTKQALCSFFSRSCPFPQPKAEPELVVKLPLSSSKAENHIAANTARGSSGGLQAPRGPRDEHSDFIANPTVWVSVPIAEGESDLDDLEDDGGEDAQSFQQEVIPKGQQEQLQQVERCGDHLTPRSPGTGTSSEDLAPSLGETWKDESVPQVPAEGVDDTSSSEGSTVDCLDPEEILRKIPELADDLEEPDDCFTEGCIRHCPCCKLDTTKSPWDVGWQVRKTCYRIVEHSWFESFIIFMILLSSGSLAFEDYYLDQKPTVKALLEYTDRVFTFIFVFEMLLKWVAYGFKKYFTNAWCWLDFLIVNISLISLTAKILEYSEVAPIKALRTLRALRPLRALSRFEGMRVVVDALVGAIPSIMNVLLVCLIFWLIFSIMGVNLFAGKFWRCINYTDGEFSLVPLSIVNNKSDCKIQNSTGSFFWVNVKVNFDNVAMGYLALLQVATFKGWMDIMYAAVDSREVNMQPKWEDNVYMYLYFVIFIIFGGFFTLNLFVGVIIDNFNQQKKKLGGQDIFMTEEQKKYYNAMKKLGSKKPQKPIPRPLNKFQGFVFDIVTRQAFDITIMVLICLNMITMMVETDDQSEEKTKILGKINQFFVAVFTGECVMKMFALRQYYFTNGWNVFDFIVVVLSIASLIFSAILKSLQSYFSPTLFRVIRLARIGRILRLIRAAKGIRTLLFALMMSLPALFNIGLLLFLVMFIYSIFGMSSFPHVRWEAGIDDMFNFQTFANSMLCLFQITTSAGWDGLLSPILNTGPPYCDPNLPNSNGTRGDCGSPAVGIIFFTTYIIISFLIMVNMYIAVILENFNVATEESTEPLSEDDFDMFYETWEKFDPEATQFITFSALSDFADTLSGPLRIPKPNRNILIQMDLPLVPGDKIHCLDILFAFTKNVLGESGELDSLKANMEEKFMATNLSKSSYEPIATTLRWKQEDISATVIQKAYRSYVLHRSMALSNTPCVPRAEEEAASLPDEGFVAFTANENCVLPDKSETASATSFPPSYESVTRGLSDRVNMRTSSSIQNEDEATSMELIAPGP

| SMILES | IC50 |
| --- | --- |
| COc1c([C@@H]2C[C@](C)(C(F)(F)F)S[C@H]2C(=O)Nc2ccnc(S(=O)(=O)N=[N+]=[N-])c2)ccc(F)c1F [a-66-A, 4-((2R,3S,5R)-3-(3,4-difluoro-2-methoxyphenyl)-5-methyl-5-(trifluoromethyl)tetrahydrothiophene-2-carboxamido)pyridine-2-sulfonyl azide] | 0.26 nM |
| COc1c([C@@H]2C[C@](C)(C(F)(F)F)S[C@H]2C(=O)Nc2cccc(S(=O)(=O)NCCN)c2)ccc(F)c1F [a-45-A, (2R,3S,5R)-N-(3-(N-(2-aminoethyl)sulfamoyl)phenyl)-3-(3,4-difluoro-2-methoxyphenyl)-5-methyl-5-(trifluoromethyl)tetrahydrothiophene-2-carboxamide] | 0.024 nM |

Same assay, conditions: concentration of 1 nM, read-out: Inhibition rate %

| SMILES | inhibition at 0.001 µM |
| --- | --- |
| COc1c([C@@H]2C[C@](C)(C(F)(F)F)S[C@H]2C(=O)Nc2cnnc(N=[N+]=[N-])c2)ccc(F)c1F [a-30-A, (2R,3S,5R)-(4-(3-(3,4-difluoro-2-methoxyphenyl)-5-methyl-5-(trifluoromethyl)tetrahydrothiophene-2-carboxamido)-6-azido)pyridazine] | 74.5% |
| COc1c([C@@H]2C[C@](C)(C(F)(F)F)S[C@H]2C(=O)Nc2cccc(OS(N)(=O)=O)c2)ccc(F)c1F [a-39-A, (3-((2R,3S,5R)-3-(3,4-difluoro-2-methoxyphenyl)-5-methyl-5-(trifluoromethyl)tetrahydrothiophene-2-carboxamido)phenyl sulfamate] | 72% |
| COc1c(C2CC(C)(C(F)(F)F)SC2C(=O)Nc2ccnc(N)c2)ccc(F)c1F (centres unmarked) [Compound 175, (4-(3-(3,4-difluoro-2-methoxyphenyl)-5-methyl-5-(trifluoromethyl)tetrahydrothiophene-2-carboxamido)-2-amino)pyridine] | 87.8% |
| COc1c([C@@H]2C[C@](C)(C(F)(F)F)S[C@H]2C(=O)Nc2ccc(F)c(N=[N+]=[N-])c2)ccc(F)c1F [a-31-A, (2R,3S,5R)-N-(3-azido-4-fluorophenyl)-3-(3,4-difluoro-2-methoxyphenyl)-5-methyl-5-(trifluoromethyl)tetrahydrothiophene-2-carboxamide] | 81.9% |
| COc1c([C@@H]2C[C@](C)(C(F)(F)F)S[C@H]2C(=O)Nc2cn(S(=O)(=O)C3CC3)nc2C)ccc(F)c1F [a-21-A, (2R,3S,5R)-N-(1-(cyclopropylsulfonyl)-3-methyl-1H-pyrazol-4-yl)-3-(3,4-difluoro-2-methoxyphenyl)-5-methyl-5-(trifluoromethyl)tetrahydrothiophene-2-carboxamide] | 84.6% |
| COc1c([C@@H]2C[C@](C)(C(F)(F)F)S[C@H]2C(=O)Nc2ccnc(C(F)F)c2)ccc(F)c1F [Compound 244-A, (2R,3S,5R)-3-(3,4-difluoro-2-methoxyphenyl)-N-(2-(difluoromethyl)pyridin-4-yl)-5-methyl-5-(trifluoromethyl)tetrahydrothiophene-2-carboxamide] | 87.8% |
| COc1c(C2C(C(=O)Nc3ccnc(C(N)=O)c3)SC(C)(C(F)(F)F)C2C)ccc(F)c1F (centres unmarked) [Compound 136, 4-(3-(3,4-difluoro-2-methoxyphenyl)-4,5-dimethyl-5-(trifluoromethyl)tetrahydrothiophene-2-carboxamido)picolinamide] | 61.9% |
| COc1c([C@@H]2C[C@](C)(C(F)(F)F)S[C@H]2C(=O)Nc2ccc3nonc3c2)ccc(F)c1F [Compound 248-A, (2R,3S,5R)-N-(benzo[c][1,2,5]oxadiazol-5-yl)-3-(3,4-difluoro-2-methoxyphenyl)-5-methyl-5-(trifluoromethyl)tetrahydrothiophene-2-carboxamide] | 72.6% |

Same assay, conditions: concentration of 10 nM, 0.01 µM

| SMILES | Inhibition rate (%) |
| --- | --- |
| COc1c(C2CC(C)(C)SC2C(=O)Nc2ccnc(C(N)=O)c2)ccc(F)c1F (centres unmarked) [Compound 134-A, 4-(3-(3,4-difluoro-2-methoxyphenyl)-5,5-dimethyltetrahydrothiophene-2-carboxamido)picolinamide] | 87.78% |

Same assay, conditions: concentration of 10 nM, read-out: Inhibition rate %

| SMILES | inhibition at 0.01 µM |
| --- | --- |
| COc1c([C@@H]2C[C@](C)(C(F)(F)F)S[C@H]2C(=O)Nc2ccc(F)c(C(N)=O)c2)ccc(F)c1F [Compound 146-A, (2R,3S,5R)-N-(3-carbamoyl-4-fluorophenyl)-3-(3,4-difluoro-2-methoxyphenyl)-5-methyl-5-(trifluoromethyl)tetrahydrothiophene-2-carboxamide] | 98.3% |
| COc1c([C@@H]2C[C@](C)(C(F)(F)F)S[C@H]2C(=O)Nc2cccc(S(=O)(=O)N(C)C)c2)ccc(F)c1F [Compound 240-A, (2R,3S,5R)-3-(3,4-difluoro-2-methoxyphenyl)-N-(3-(N,N-dimethylsulfamoyl)phenyl)-5-methyl-5-(trifluoromethyl)tetrahydrothiophene-2-carboxamide] | 87.4% |
| COC(=O)c1cc(NC(=O)[C@@H]2S[C@@](C)(C(F)(F)F)C[C@H]2c2ccc(F)c(F)c2OC)ccc1B(O)O [Compound 101-A, (4-((2R,3S,5R)-3-(3,4-difluoro-2-methoxyphenyl)-5-methyl-5-(trifluoromethyl)tetrahydrothiophene-2-carboxamido)-2-(methoxycarbonyl)phenyl)boronic acid] | 77.9% |
| COc1c(C2CC(C)(C(F)(F)F)SC2C(=O)Nc2ccc(F)c(S(C)(=N)=O)c2)ccc(F)c1F (centres unmarked) [Compound 227, 3-(3,4-difluoro-2-methoxyphenyl)-N-(4-fluoro-3-(S-methylsulfonimidoyl)phenyl)-5-methyl-5-(trifluoromethyl)tetrahydrothiophene-2-carboxamide] | 97.7% |
| COc1c([C@@H]2C[C@](C)(C(F)(F)F)S[C@H]2C(=O)Nc2ccc(SC)nc2)ccc(F)c1F [Compound 231-A, (2R,3S,5R)-3-(3,4-difluoro-2-methoxyphenyl)-5-methyl-N-(6-(methylthio)pyridin-3-yl)-5-(trifluoromethyl)tetrahydrothiophene-2-carboxamide] | 83.7% |
| [2H][C@@]1(C(=O)Nc2csc(B(O)O)c2)S[C@@](C)(C(F)(F)F)C[C@H]1c1ccc(F)c(F)c1OC [Compound 50-A, (4-((2R,3S,5R)-3-(3,4-difluoro-2-methoxyphenyl)-5-methyl-5-(trifluoromethyl)tetrahydrothiophene-2-carboxamido-2-d)thiophen-2-yl)boronic acid] | 80.9% |
| CNS(=O)(=O)c1cccc(NC(=O)[C@@H]2S[C@@](C)(C(F)(F)F)C[C@H]2c2ccc(F)c(F)c2OC)c1 [Compound 241-A, (2R,3S,5R)-3-(3,4-difluoro-2-methoxyphenyl)-5-methyl-N-(3-(N-methylsulfamoyl)phenyl)-5-(trifluoromethyl)tetrahydrothiophene-2-carboxamide] | 95.4% |
| [2H]C1(C(=O)Nc2ccnc(O)c2)SC(C)(C(F)(F)F)CC1c1ccc(F)c(F)c1OC (stereo not drawn) [Compound 222, 3-(3,4-difluoro-2-methoxyphenyl)-N-(2-hydroxypyridin-4-yl)-5-methyl-5-(trifluoromethyl)tetrahydrothiophene-2-d-2-carboxamide] | 97% |
| COc1c(C2CC(C)(C(F)(F)F)SC2C(=O)Nc2cccc(NS(=O)(=O)CCN)c2)ccc(F)c1F (centres unmarked) [a-25, N-(3-((2-aminoethyl)sulfonamido)phenyl)-3-(3,4-difluoro-2-methoxyphenyl)-5-methyl-5-(trifluoromethyl)tetrahydrothiophene-2-carboxamide] | 96.5% |
| COc1c([C@@H]2C[C@](C)(C(F)(F)F)S[C@H]2C(=O)Nc2ccnc(OCC(O)CO)c2)ccc(F)c1F (stereo partly drawn) [Compound 191-A, (2R,3S,5R)-3-(3,4-difluoro-2-methoxyphenyl)-N-(2-(2,3-dihydroxypropoxy)pyridin-4-yl)-5-methyl-5-(trifluoromethyl)tetrahydrothiophene-2-carboxamide] | 88.8% |
| COc1c(C2CC(C)(C(F)(F)F)SC2C(=O)Nc2ccc3c(c2)B(O)OC3)ccc(F)c1F (centres unmarked) [Compound 31, 3-(3,4-difluoro-2-methoxyphenyl)-N-(1-hydroxy-1,3-dihydrobenzo[c][1,2]oxaborol-6-yl)-5-methyl-5-(trifluoromethyl)tetrahydrothiophene-2-carboxamide] | 65% |
| COc1c(C2CC(C)(C(F)(F)F)SC2C(=O)Nc2ccc(B(O)O)c(F)c2)ccc(F)c1F (centres unmarked) [Compound 88, (4-(3-(3,4-difluoro-2-methoxyphenyl)-5-methyl-5-(trifluoromethyl)tetrahydrothiophene-2-carboxamido)-2-fluorophenyl)boronic acid] | 95.6% |
